Results: ChEMBL document CHEMBL3714762, “Agents and methods for treating ischemic and other diseases” (2012)
pIC50: −log10 of the molar value. Activity calls are given as the source filed them. The calls are words filed in the database; no cut-off is given here.

How the values were obtained:
Rattus norvegicus [1] = test: Neuroprotection in Sprague-Dawley rat model of fluid percussion injury assessed as reduction in neuronal damage dosed 1 hr after injury by TTC staining based oscilloscopy; format: functional, organism-based
Rattus norvegicus [2] = species on record: Rattus norvegicus; test: Neuroprotection in Sprague-Dawley rat model of fluid percussion injury assessed as activity parameters by rotarod performance test relative to untreated control; format: functional, organism-based
Rattus norvegicus [3] = test: Neuroprotection in Sprague-Dawley rat model of fluid percussion injury assessed as improvement in learning and memory tasks by measuring latency to reach platform dosed 1 hr after lateral fluid percussion injury by Morris water maze test; format: functional, organism-based
Rattus norvegicus [4] = test: Neuroprotection in Sprague-Dawley rat model of fluid percussion injury assessed as reduction in neuronal brain damage dosed before injury at 2 to 10 uM by TTC staining based oscilloscopy; format: functional, organism-based
Rattus norvegicus [5] = species on record: Rattus norvegicus; test: Neuroprotection in Sprague-Dawley rat model of fluid percussion injury assessed as increase in balance by measuring mean latency measured on first day post injury by rotarod performance test relative to untreated control; format: functional
Cerebral cortex neuron = test: Neuroprotection in CD1 mouse primary cortical neuron assessed as reduction in stretch injury-induced cell death at 2 to 10 uM dosed 1 hr after injury by propidium iodide straining based; format: functional
Rattus norvegicus [6] = species on record: Rattus norvegicus; test: Neuroprotection in Sprague-Dawley rat model of fluid percussion injury assessed as distance traveled by rotarod performance test relative to untreated control; format: functional, organism-based
[7] = Selectivity index, ratio of antiproliferative activity against human WI38 cells to antiproliferative activity against mouse B16F10 cells; design: species or system B16-F10
[8] = Selectivity index, ratio of antiproliferative activity against mouse NIH/3T3 cells to antiproliferative activity against human MCF7 cells
[9] = Selectivity index, ratio of antiproliferative activity against human MCF10A cells to antiproliferative activity against human HeLa cells
HeLa = test: Antiproliferative activity against human HeLa cells assessed as inhibition of cell proliferation at 10 uM incubated for 72 hrs by Cell-titer-Glo cell viability assay; format: functional
[10] = Selectivity index, ratio of antiproliferative activity against human WI38 cells to antiproliferative activity against human DMS53 cells; design: species or system DMS-53
MCF7 = test: Antiproliferative activity against human MCF7 cells assessed as inhibition of cell proliferation at 10 uM incubated for 72 hrs by Cell-titer-Glo cell viability assay; format: functional; details: MCF7, 72 h
[11] = Selectivity index, ratio of antiproliferative activity against mouse NIH/3T3 cells to antiproliferative activity against human HeLa cells
[12] = Antiproliferative activity against human WERI cells assessed as inhibition of cell proliferation at 10 uM by propidium iodide uptake based fluoroskan microplate reader analysis; format: functional
[13] = Antiproliferative activity against human DMS53 cells assessed as inhibition of cell proliferation at 10 uM incubated for 72 hrs by Cell-titer-Glo cell viability assay; format: functional; details: DMS-53, 72 h
[14] = Antiproliferative activity against human WERI cells assessed as inhibition of cell proliferation by measuring normalized ratio of propidium iodide uptake at 10 uM by propidium iodide uptake based fluoroskan microplate reader analysis; format: functional
[15] = Selectivity index, ratio of antiproliferative activity against human WI38 cells to antiproliferative activity against human Y79 cells; design: species or system WI-38
[16] = molecular target: Transient receptor potential cation channel subfamily M member 7 (Mus musculus, UniProt Q923J1); test: Inhibition of N-terminal Flag-tagged mouse TRPM7 expressed in HEK293T cells assessed as reduction in whole cell currents by whole-cell patch clamp assay; format: cell-based, HEK-293T
Sequence of Transient receptor potential cation channel subfamily M member 7 (Q923J1 whole entry): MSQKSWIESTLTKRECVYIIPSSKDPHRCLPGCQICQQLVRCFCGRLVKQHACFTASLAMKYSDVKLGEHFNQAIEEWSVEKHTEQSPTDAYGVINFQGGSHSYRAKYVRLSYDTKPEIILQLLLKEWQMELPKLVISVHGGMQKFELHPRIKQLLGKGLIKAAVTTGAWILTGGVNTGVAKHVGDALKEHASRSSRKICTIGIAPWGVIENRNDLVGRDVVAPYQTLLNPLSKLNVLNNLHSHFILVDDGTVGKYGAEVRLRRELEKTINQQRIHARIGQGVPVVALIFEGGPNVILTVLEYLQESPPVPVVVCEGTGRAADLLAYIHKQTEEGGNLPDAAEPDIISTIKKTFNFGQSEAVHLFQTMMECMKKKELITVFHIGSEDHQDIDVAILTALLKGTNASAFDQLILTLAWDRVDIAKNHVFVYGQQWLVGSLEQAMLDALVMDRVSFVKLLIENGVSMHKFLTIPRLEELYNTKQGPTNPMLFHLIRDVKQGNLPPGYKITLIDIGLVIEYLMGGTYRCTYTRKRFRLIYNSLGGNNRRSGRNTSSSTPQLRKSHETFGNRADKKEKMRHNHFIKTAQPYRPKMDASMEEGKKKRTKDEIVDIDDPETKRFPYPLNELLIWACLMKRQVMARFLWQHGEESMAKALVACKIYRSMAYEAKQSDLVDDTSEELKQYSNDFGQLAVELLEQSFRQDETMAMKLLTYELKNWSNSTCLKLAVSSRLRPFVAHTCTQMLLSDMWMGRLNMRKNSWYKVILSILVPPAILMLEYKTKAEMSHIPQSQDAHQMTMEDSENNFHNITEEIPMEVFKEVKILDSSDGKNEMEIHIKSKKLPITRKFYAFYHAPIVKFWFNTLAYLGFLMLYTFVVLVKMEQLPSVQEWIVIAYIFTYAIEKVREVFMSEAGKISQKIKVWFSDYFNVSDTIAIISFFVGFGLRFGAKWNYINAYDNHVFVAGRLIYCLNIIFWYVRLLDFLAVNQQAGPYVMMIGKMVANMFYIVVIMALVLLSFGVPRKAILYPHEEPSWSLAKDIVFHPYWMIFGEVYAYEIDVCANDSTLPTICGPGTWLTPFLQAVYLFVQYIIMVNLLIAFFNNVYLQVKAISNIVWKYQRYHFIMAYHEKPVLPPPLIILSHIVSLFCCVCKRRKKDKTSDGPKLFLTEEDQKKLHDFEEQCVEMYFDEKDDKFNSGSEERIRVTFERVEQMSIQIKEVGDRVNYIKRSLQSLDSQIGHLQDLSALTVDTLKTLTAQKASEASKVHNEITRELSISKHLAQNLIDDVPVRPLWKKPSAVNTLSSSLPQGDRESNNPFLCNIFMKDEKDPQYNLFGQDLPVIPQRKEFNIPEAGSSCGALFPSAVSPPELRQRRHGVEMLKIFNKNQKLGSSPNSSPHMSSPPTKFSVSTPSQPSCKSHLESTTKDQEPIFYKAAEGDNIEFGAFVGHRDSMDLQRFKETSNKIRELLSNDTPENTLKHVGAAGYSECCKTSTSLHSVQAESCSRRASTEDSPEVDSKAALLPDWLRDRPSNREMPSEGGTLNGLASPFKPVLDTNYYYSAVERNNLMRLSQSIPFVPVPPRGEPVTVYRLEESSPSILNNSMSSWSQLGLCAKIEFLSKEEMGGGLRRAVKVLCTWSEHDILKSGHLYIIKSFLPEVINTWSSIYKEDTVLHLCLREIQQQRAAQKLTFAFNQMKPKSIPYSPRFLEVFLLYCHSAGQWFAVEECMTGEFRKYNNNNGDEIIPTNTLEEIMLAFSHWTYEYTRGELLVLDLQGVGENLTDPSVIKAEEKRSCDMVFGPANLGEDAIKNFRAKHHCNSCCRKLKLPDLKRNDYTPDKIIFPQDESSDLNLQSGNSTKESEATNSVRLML

[17] = Antiproliferative activity against human MCF10A cells assessed as inhibition of cell proliferation at 10 uM incubated for 72 hrs by Cell-titer-Glo cell viability assay; format: cell-based, MCF-10A
[18] = Selectivity index, ratio of antiproliferative activity against human MCF10A cells to antiproliferative activity against human Y79 cells; design: species or system MCF-10A
Y79 = test: Antiproliferative activity against human Y79 cells assessed as inhibition of cell proliferation at 10 uM incubated for 72 hrs by Cell-titer-Glo cell viability assay; format: functional; details: Y79, 72 h
[19] = Antiproliferative activity against mouse B16F10 cells assessed as inhibition of cell proliferation at 10 uM incubated for 72 hrs by Cell-titer-Glo cell viability assay; format: functional; details: B16-F10, 72 h
[20] = Selectivity index, ratio of antiproliferative activity against mouse NIH/3T3 cells to antiproliferative activity against mouse B16F10 cells; design: species or system B16-F10
[21] = Selectivity index, ratio of antiproliferative activity against mouse NIH/3T3 cells to antiproliferative activity against human DMS53 cells; design: species or system DMS-53
[22] = Antiproliferative activity against human WERI cells assessed as inhibition of cell proliferation at 5 uM by propidium iodide uptake based fluoroskan microplate reader analysis; format: functional
[23] = Selectivity index, ratio of antiproliferative activity against human MCF10A cells to antiproliferative activity against human MCF7 cells; design: species or system MCF-10A
[24] = Antiproliferative activity against mouse NIH/3T3 cells assessed as inhibition of cell proliferation at 10 uM incubated for 72 hrs by Cell-titer-Glo cell viability assay; format: cell-based, NIH3T3
[25] = Selectivity index, ratio of antiproliferative activity against human MCF10A cells to antiproliferative activity against mouse B16F10 cells; design: species or system MCF-10A
[26] = Selectivity index, ratio of antiproliferative activity against human WI38 cells to antiproliferative activity against human MCF7 cells
[27] = Selectivity index, ratio of antiproliferative activity against human MCF10A cells to antiproliferative activity against human DMS53 cells; design: species or system MCF-10A
[28] = Antiproliferative activity against human WERI cells assessed as inhibition of cell proliferation by measuring normalized ratio of propidium iodide uptake at 5 uM by propidium iodide uptake based fluoroskan microplate reader analysis; format: functional
[29] = Antiproliferative activity against human WERI cells assessed as inhibition of cell proliferation by propidium iodide uptake based fluoroskan microplate reader analysis; format: functional
[30] = Antiproliferative activity against human WI38 cells assessed as inhibition of cell proliferation at 10 uM incubated for 72 hrs by Cell-titer-Glo cell viability assay; format: cell-based, WI-38
[31] = Selectivity index, ratio of antiproliferative activity against mouse NIH/3T3 cells to antiproliferative activity against human Y79 cells
[32] = Selectivity index, ratio of antiproliferative activity against human WI38 cells to antiproliferative activity against human HeLa cells

Row | SMILES | Selectivity Index [7] | Selectivity Index [8] | Selectivity Index [9] | inhibition at 10 µM (HeLa) [%] | Selectivity Index [10] | inhibition at 10 µM (MCF7) [%] | Selectivity Index [11] | inhibition at 10 µM [13] [%] | Ratio [14] | Selectivity Index [15] | inhibition at 72 h, 10 µM [17] [%] | Selectivity Index [18] | inhibition at 10 µM (Y79) [%] | inhibition at 10 µM [19] [%] | Selectivity Index [20] | Selectivity Index [21] | Selectivity Index [23] | inhibition at 72 h, 10 µM [24] [%] | Selectivity Index [25] | Selectivity Index [26] | further results
1 | Cc1c(Cc2ccc(Cl)c(Cl)c2)c(=O)oc2cc(O)ccc12 |  |  |  |  |  |  |  |  |  |  |  |  |  |  |  |  |  |  |  |  | Activity (Rattus norvegicus [1]): Active; Activity (Rattus norvegicus [2]): Active; Activity (Rattus norvegicus [3]): Active; Activity (Rattus norvegicus [4]): Active; fold change (FC) (Rattus norvegicus [5]): 2; Activity (Cerebral cortex neuron): Active; Activity (Rattus norvegicus [6]): Active
2 | COc1ccc2c(c1)CCN=C2c1sc2ccccc2c1Cl | 20 | 20 | 20 | > 40 | 20 | > 40 | 20 | > 40 | 0.035 | 20 | > 40 | 20 | > 40 | > 40 | 20 | 20 | 20 | > 40 | 20 | 20 | inhibition at 10 µM [12]: 42%; pIC50 [16]: 5.30; inhibition at 5 µM [22]: 18%; Selectivity Index [27]: 20; Ratio [28]: 0.06; pIC50 [29]: 5.92; inhibition at 72 h, 10 µM [30]: > 40%; Selectivity Index [31]: 20; Selectivity Index [32]: 20
3 | COc1ccc(C(=O)c2sc3ccccc3c2Cl)cc1 | 20 | 20 | 20 | > 40 | 20 | > 40 | 20 | > 40 | 0.063 | 20 | > 40 | 20 | > 40 | > 40 | 20 | 20 | 20 | > 40 | 20 | 20 | Selectivity Index [27]: 20; Ratio [28]: 0.305; pIC50 [29]: 5.40; inhibition at 72 h, 10 µM [30]: > 40%; Selectivity Index [31]: 20; Selectivity Index [32]: 20
